Reference: the supplement of paper PMC10307832

Assays:
Assay in all cases: relative viability (nuclei count vs DMSO), 5 days (fraction); higher = more cells survive
Halofuginone + OSI-027 = compound: O=C(C[C@H]1NCCC[C@@H]1O)Cn1cnc2cc(Br)c(Cl)cc2c1=O (racemic) [Halofuginone] + COc1cccc2cc(-c3nc([C@H]4CC[C@H](C(=O)O)CC4)n4ncnc(N)c34)[nH]c12 [OSI-027] (partner 0.5 µM)
Procedure, shortened: (§1)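 Lung cancer cell lines were seeded in 1536-well plates and dosed by pin tool the next day, with either a single drug or a fixed anchor-drug dose combined with five library-drug doses (not always all listed) spaced in √10 steps. Five days later, one step fixed the cells and stained their nuclei (final 0.05% Triton X-100, 1% formaldehyde, 1 ug/ml Hoechst), and nuclei were counted on 4× images. Relative viability is the nuclei count in treated wells divided by the count in vehicle wells, and each value is the median of duplicate plates.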

Cediranib + Phenformin = compound: COc1cc2c(Oc3ccc4[nH]c(C)cc4c3F)ncnc2cc1OCCCN1CCCC1 [Cediranib] + N=C(N)NC(=N)NCCc1ccccc1 [Phenformin] (partner 250 µM)
Procedure, shortened: as §1

Decitabine + Crizotinib = compound: Nc1ncn([C@H]2C[C@H](O)[C@@H](CO)O2)c(=O)n1 [Decitabine] + C[C@@H](Oc1cc(-c2cnn(C3CCNCC3)c2)cnc1N)c1c(Cl)ccc(F)c1Cl [Crizotinib] (partner 1 µM)
Procedure, shortened: as §1

Decitabine + Palbociclib = compound: Nc1ncn([C@H]2C[C@H](O)[C@@H](CO)O2)c(=O)n1 [Decitabine] + CC(=O)c1c(C)c2cnc(Nc3ccc(N4CCNCC4)cn3)nc2n(C2CCCC2)c1=O [Palbociclib] (partner 0.5 µM)
Procedure, shortened: as §1

Row | Cell Line | relative viability (Halofuginone + OSI-027; first compound 0.001 µM) | relative viability (Halofuginone + OSI-027; first compound 0.003162 µM) | relative viability (Halofuginone + OSI-027; first compound 0.01 µM) | relative viability (Halofuginone + OSI-027; first compound 0.03162 µM) | relative viability (Halofuginone + OSI-027; first compound 0.1 µM) | relative viability (Cediranib + Phenformin; first compound 0.04 µM) | relative viability (Cediranib + Phenformin; first compound 0.1265 µM) | relative viability (Cediranib + Phenformin; first compound 0.4 µM) | relative viability (Cediranib + Phenformin; first compound 1.265 µM) | relative viability (Cediranib + Phenformin; first compound 4 µM) | relative viability (Decitabine + Crizotinib; first compound 0.04 µM) | relative viability (Decitabine + Crizotinib; first compound 0.1265 µM) | relative viability (Decitabine + Crizotinib; first compound 0.4 µM) | relative viability (Decitabine + Crizotinib; first compound 1.265 µM) | relative viability (Decitabine + Crizotinib; first compound 4 µM) | relative viability (Decitabine + Palbociclib; first compound 0.04 µM) | relative viability (Decitabine + Palbociclib; first compound 0.1265 µM) | relative viability (Decitabine + Palbociclib; first compound 0.4 µM) | relative viability (Decitabine + Palbociclib; first compound 1.265 µM) | relative viability (Decitabine + Palbociclib; first compound 4 µM)
1 | HCC-366 | 1.33 | 1.02 | 0.857 | 0.892 | 0.567 | 0.536 | 0.594 | 0.614 | 0.738 | 0.663 | 0.237 | 0.362 | 0.121 | 0.102 | 0.0419 | 0.306 | 0.244 | 0.175 | 0.0803 | 0.0669
2 | HCC-827 | 0.746 | 0.783 | 0.76 | 0.902 | 0.742 | 0.412 |  | 0.389 | 0.385 | 0.356 |  | 0.396 | 0.355 | 0.262 | 0.272 | 0.231 | 0.311 | 0.294 | 0.262 | 0.181
3 | HOP-62 | 0.782 | 0.803 | 0.826 | 0.727 | 0.576 | 0.703 | 0.607 | 0.647 | 0.632 | 0.741 | 0.421 | 0.318 | 0.149 | 0.117 | 0.133 | 0.326 | 0.327 | 0.195 | 0.136 | 0.273
4 | IA-LM |  |  |  |  |  |  |  |  |  |  | 0.342 | 0.274 | 0.2 | 0.191 | 0.102 |  |  |  |  | 
5 | LC-2-ad | 0.903 | 0.888 | 0.746 | 0.889 | 0.608 | 0.595 | 0.497 | 0.612 | 0.569 | 0.554 | 0.391 | 0.371 | 0.34 | 0.262 | 0.283 | 0.498 | 0.538 | 0.48 | 0.365 | 0.463
6 | LCLC-97TM1 | 0.674 | 0.612 | 0.597 | 0.566 | 0.358 | 0.501 | 0.288 | 0.421 | 0.49 | 0.449 | 0.155 | 0.16 | 0.18 | 0.15 | 0.101 | 0.207 | 0.197 | 0.171 | 0.152 | 0.22
7 | LCLC-103H | 0.474 | 0.447 | 0.446 | 0.428 | 0.451 | 0.319 | 0.39 | 0.298 | 0.344 | 0.352 | 1.01 | 1.02 | 0.78 | 0.82 | 0.79 | 0.429 | 0.49 | 0.444 | 0.442 | 0.501
8 | LK-2 | 0.24 | 0.237 | 0.201 | 0.221 | 0.167 | 0.38 | 0.175 | 0.35 | 0.418 | 0.29 |  | 0.219 | 0.262 | 0.265 | 0.219 | 0.655 | 0.66 | 0.327 | 0.236 | 0.238
9 | LOU-NH91 | 0.733 | 0.732 | 0.748 | 0.741 | 0.692 | 0.688 | 0.986 | 0.696 | 0.625 | 0.673 | 0.509 | 0.683 | 0.615 | 0.613 | 0.656 | 0.514 | 0.592 | 0.588 | 0.507 | 0.415
